# Source: US8916702B2 (priority 2012, dated 2014)
# Test system: HCV pseudoparticles (genotype 1a HCV E1 and E2 envelope, H77C isolate)
# Test: microbe, parasite or virus in culture
# Format: cell-based
# Details: Hepatitis C virus, Huh-7, 48 h, HCV pseudoparticle infection of Huh7 cells, luciferase 2 days after infection; average of duplicates
row,Structure (SMILES),EC50 [nM]
1,COC(=O)[C@H](CNC(=O)C(=O)NCc1cc(F)ccc1F)NC(=O)c1ccc(Nc2nc(NC3(c4ccc(Cl)cc4)CC3)nc(OCC(F)(F)F)n2)cc1 [Compound 1154],1.07
2,COc1ccc(CNC(=O)C(=O)NC[C@H](NC(=O)c2ccc(Nc3nc(NC4(c5ccc(Cl)cc5)CC4)nc(OCC(F)(F)F)n3)cc2)C(=O)O)cc1 [Compound 1167],1.32
3,COc1ccc(CNC(=O)C(=O)NC[C@H](NC(=O)c2ccc(Nc3nc(NC4(c5ccc(Cl)cc5)CC4)nc(OCC(F)(F)F)n3)cc2)C(=O)O)c(OC)c1 [Compound 1172],9.26
4,O=C(NCc1cc(F)cc(F)c1)C(=O)NC[C@H](NC(=O)c1ccc(Nc2nc(NC3(c4ccc(Cl)cc4)CC3)nc(OCC(F)(F)F)n2)cc1)C(=O)O [Compound 1173],0.74
5,O=C(NCC[C@H](NC(=O)c1ccc(Nc2nc(NC3(c4ccc(Cl)cc4)CC3)nc(OCC(F)(F)F)n2)cc1)C(=O)O)C(=O)NCc1ccccc1 [Compound 1187],0.08
6,Cc1ccc(CNC(=O)C(=O)NCC[C@H](NC(=O)c2ccc(Nc3nc(NC4(c5ccc(Cl)cc5)CC4)nc(OCC(F)(F)F)n3)cc2)C(=O)O)cc1F [Compound 1191],0.17
7,COc1cccc(CNC(=O)C(=O)NC[C@H](NC(=O)c2ccc(Nc3nc(NC4(c5ccc(Cl)cc5)CC4)nc(OCC(F)(F)F)n3)cc2)C(=O)O)c1 [Compound 1193],0.52
8,CCC1(CC)CC1CNC(=O)C(=O)NCC[C@H](NC(=O)c1ccc(Nc2nc(NC3(c4ccc(Cl)cc4)CC3)nc(OCC(F)(F)F)n2)cc1)C(=O)OC (stereo partly drawn) [Compound 1199],0.19

# Same assay, conditions: Hepatitis C virus, Huh-7, 48 h, read-out: Activity (EC50 class), HCV pseudoparticle infection of Huh7 cells, luciferase 2 days after infection; EC50 expressed as class A/B
row,Structure (SMILES),EC50 [nM]
1,COC(=O)[C@H](CNC(=O)C(=O)NCc1cc(F)ccc1F)NC(=O)c1ccc(Nc2nc(NC3(c4ccc(Cl)cc4)CC3)nc(OCC(F)(F)F)n2)cc1 [Compound 1154],0.01 to 10
2,COC(=O)[C@H](CCNC(=O)C(=O)NCc1ccccc1OC)NC(=O)c1ccc(Nc2nc(NC3(c4ccc(Cl)cc4)CC3)nc(OCC(F)(F)F)n2)cc1 [Compound 1155],0.01 to 10
3,COC(=O)[C@H](CCNC(=O)C(=O)NCc1cccc(OC)c1)NC(=O)c1ccc(Nc2nc(NC3(c4ccc(Cl)cc4)CC3)nc(OCC(F)(F)F)n2)cc1 [Compound 1156],0.01 to 10
4,COC(=O)[C@H](CCNC(=O)C(=O)NCc1cc(F)ccc1F)NC(=O)c1ccc(Nc2nc(NC3(c4ccc(Cl)cc4)CC3)nc(OCC(F)(F)F)n2)cc1 [Compound 1157],0.01 to 10
5,COC(=O)[C@H](CCNC(=O)C(=O)NCc1c(F)cccc1F)NC(=O)c1ccc(Nc2nc(NC3(c4ccc(Cl)cc4)CC3)nc(OCC(F)(F)F)n2)cc1 [Compound 1158],0.01 to 10
6,COC(=O)[C@H](CCNC(=O)C(=O)NCc1ccc(F)c(F)c1)NC(=O)c1ccc(Nc2nc(NC3(c4ccc(Cl)cc4)CC3)nc(OCC(F)(F)F)n2)cc1 [Compound 1159],0.01 to 10
7,COC(=O)[C@H](CCNC(=O)C(=O)NCc1cccc(F)c1F)NC(=O)c1ccc(Nc2nc(NC3(c4ccc(Cl)cc4)CC3)nc(OCC(F)(F)F)n2)cc1 [Compound 1160],0.01 to 10
8,COC(=O)[C@H](CCNC(=O)C(=O)NCc1ccc(F)cc1F)NC(=O)c1ccc(Nc2nc(NC3(c4ccc(Cl)cc4)CC3)nc(OCC(F)(F)F)n2)cc1 [Compound 1161],0.01 to 10
9,O=C(NCc1cccc(F)c1)C(=O)NC[C@H](NC(=O)c1ccc(Nc2nc(NC3(c4ccc(Cl)cc4)CC3)nc(OCC(F)(F)F)n2)cc1)C(=O)O [Compound 1163],0.01 to 10
10,O=C(NCc1ccccc1)C(=O)NC[C@H](NC(=O)c1ccc(Nc2nc(NC3(c4ccc(Cl)cc4)CC3)nc(OCC(F)(F)F)n2)cc1)C(=O)O [Compound 1164],0.01 to 10
11,COc1ccccc1CNC(=O)C(=O)NC[C@H](NC(=O)c1ccc(Nc2nc(NC3(c4ccc(Cl)cc4)CC3)nc(OCC(F)(F)F)n2)cc1)C(=O)O [Compound 1165],0.01 to 10
12,O=C(NCc1ccc(F)cc1)C(=O)NC[C@H](NC(=O)c1ccc(Nc2nc(NC3(c4ccc(Cl)cc4)CC3)nc(OCC(F)(F)F)n2)cc1)C(=O)O [Compound 1166],0.01 to 10
13,COc1ccc(CNC(=O)C(=O)NC[C@H](NC(=O)c2ccc(Nc3nc(NC4(c5ccc(Cl)cc5)CC4)nc(OCC(F)(F)F)n3)cc2)C(=O)O)cc1 [Compound 1167],0.01 to 10
14,O=C(NCc1ccc(F)cc1F)C(=O)NC[C@H](NC(=O)c1ccc(Nc2nc(NC3(c4ccc(Cl)cc4)CC3)nc(OCC(F)(F)F)n2)cc1)C(=O)O [Compound 1168],0.01 to 10
15,O=C(NCc1cc(F)ccc1F)C(=O)NC[C@H](NC(=O)c1ccc(Nc2nc(NC3(c4ccc(Cl)cc4)CC3)nc(OCC(F)(F)F)n2)cc1)C(=O)O [Compound 1169],0.01 to 10
16,O=C(NCc1c(F)cccc1F)C(=O)NC[C@H](NC(=O)c1ccc(Nc2nc(NC3(c4ccc(Cl)cc4)CC3)nc(OCC(F)(F)F)n2)cc1)C(=O)O [Compound 1170],0.01 to 10
17,O=C(NCc1ccc(F)c(F)c1)C(=O)NC[C@H](NC(=O)c1ccc(Nc2nc(NC3(c4ccc(Cl)cc4)CC3)nc(OCC(F)(F)F)n2)cc1)C(=O)O [Compound 1171],0.01 to 10
18,COc1ccc(CNC(=O)C(=O)NC[C@H](NC(=O)c2ccc(Nc3nc(NC4(c5ccc(Cl)cc5)CC4)nc(OCC(F)(F)F)n3)cc2)C(=O)O)c(OC)c1 [Compound 1172],0.01 to 10
19,O=C(NCc1cc(F)cc(F)c1)C(=O)NC[C@H](NC(=O)c1ccc(Nc2nc(NC3(c4ccc(Cl)cc4)CC3)nc(OCC(F)(F)F)n2)cc1)C(=O)O [Compound 1173],0.01 to 10
20,O=C(NC[C@H](NC(=O)c1ccc(Nc2nc(NC3(c4ccc(Cl)cc4)CC3)nc(OCC(F)(F)F)n2)cc1)C(=O)O)C(=O)NC1CCCCC1 [Compound 1174],0.01 to 10
21,O=C(NC[C@H](NC(=O)c1ccc(Nc2nc(NC3(c4ccc(Cl)cc4)CC3)nc(OCC(F)(F)F)n2)cc1)C(=O)O)C(=O)NC1CCCCCC1 [Compound 1175],0.01 to 10
22,COc1ccc(CNC(=O)C(=O)NC[C@H](NC(=O)c2ccc(Nc3nc(NC4(c5ccc(Cl)cc5)CC4)nc(OCC(F)(F)F)n3)cc2)C(=O)O)cc1OC [Compound 1176],0.01 to 10
23,O=C(NCC[C@H](NC(=O)c1ccc(Nc2nc(NC3(c4ccc(Cl)cc4)CC3)nc(OCC(F)(F)F)n2)cc1)C(=O)O)C(=O)NCc1cccc(F)c1F [Compound 1177],0.01 to 10
24,O=C(NCC[C@H](NC(=O)c1ccc(Nc2nc(NC3(c4ccc(Cl)cc4)CC3)nc(OCC(F)(F)F)n2)cc1)C(=O)O)C(=O)NCc1cccc(F)c1 [Compound 1178],0.01 to 10
25,O=C(NCC[C@H](NC(=O)c1ccc(Nc2nc(NC3(c4ccc(Cl)cc4)CC3)nc(OCC(F)(F)F)n2)cc1)C(=O)O)C(=O)NC1CCCCC1 [Compound 1179],0.01 to 10

row,Structure (SMILES),EC50 [nM]
1,O=C(NCC[C@H](NC(=O)c1ccc(Nc2nc(NC3(c4ccc(Cl)cc4)CC3)nc(OCC(F)(F)F)n2)cc1)C(=O)O)C(=O)NCC1CCCCC1 [Compound 1181],0.01 to 10
2,COC1CCCCC1CNC(=O)C(=O)NCC[C@H](NC(=O)c1ccc(Nc2nc(NC3(c4ccc(Cl)cc4)CC3)nc(OCC(F)(F)F)n2)cc1)C(=O)O (stereo partly drawn) [Compound 1182],0.01 to 10
3,COc1cccc(CNC(=O)C(=O)NCC[C@H](NC(=O)c2ccc(Nc3nc(NC4(c5ccc(Cl)cc5)CC4)nc(OCC(F)(F)F)n3)cc2)C(=O)O)c1 [Compound 1183],0.01 to 10
4,COc1ccc(CNC(=O)C(=O)NCC[C@H](NC(=O)c2ccc(Nc3nc(NC4(c5ccc(Cl)cc5)CC4)nc(OCC(F)(F)F)n3)cc2)C(=O)O)cc1OC [Compound 1184],0.01 to 10
5,Cc1ccc(CNC(=O)C(=O)NCC[C@H](NC(=O)c2ccc(Nc3nc(NC4(c5ccc(Cl)cc5)CC4)nc(OCC(F)(F)F)n3)cc2)C(=O)O)cc1 [Compound 1185],0.01 to 10
6,COc1ccc(CNC(=O)C(=O)NCC[C@H](NC(=O)c2ccc(Nc3nc(NC4(c5ccc(Cl)cc5)CC4)nc(OCC(F)(F)F)n3)cc2)C(=O)O)cc1 [Compound 1186],0.01 to 10
7,O=C(NCC[C@H](NC(=O)c1ccc(Nc2nc(NC3(c4ccc(Cl)cc4)CC3)nc(OCC(F)(F)F)n2)cc1)C(=O)O)C(=O)NCc1ccccc1 [Compound 1187],0.01 to 10
8,Cc1ccc(CNC(=O)C(=O)NCC[C@H](NC(=O)c2ccc(Nc3nc(NC4(c5ccc(Cl)cc5)CC4)nc(OCC(F)(F)F)n3)cc2)C(=O)O)c(F)c1 [Compound 1188],0.01 to 10
9,O=C(NCC[C@H](NC(=O)c1ccc(Nc2nc(NC3(c4ccc(Cl)cc4)CC3)nc(OCC(F)(F)F)n2)cc1)C(=O)O)C(=O)NCc1cc(F)ccc1F [Compound 1189],0.01 to 10
10,O=C(NCC[C@H](NC(=O)c1ccc(Nc2nc(NC3(c4ccc(Cl)cc4)CC3)nc(OCC(F)(F)F)n2)cc1)C(=O)O)C(=O)NCc1c(F)cccc1F [Compound 1190],0.01 to 10
11,Cc1ccc(CNC(=O)C(=O)NCC[C@H](NC(=O)c2ccc(Nc3nc(NC4(c5ccc(Cl)cc5)CC4)nc(OCC(F)(F)F)n3)cc2)C(=O)O)cc1F [Compound 1191],0.01 to 10
12,O=C(NCC[C@H](NC(=O)c1ccc(Nc2nc(NC3(c4ccc(Cl)cc4)CC3)nc(OCC(F)(F)F)n2)cc1)C(=O)O)C(=O)NCc1cc(F)cc(F)c1 [Compound 1192],0.01 to 10
13,COc1cccc(CNC(=O)C(=O)NC[C@H](NC(=O)c2ccc(Nc3nc(NC4(c5ccc(Cl)cc5)CC4)nc(OCC(F)(F)F)n3)cc2)C(=O)O)c1 [Compound 1193],0.01 to 10
14,COc1ccc(CNC(=O)C(=O)NCC[C@H](NC(=O)c2ccc(Nc3nc(NC4(c5ccc(Cl)cc5)CC4)nc(OCC(F)(F)F)n3)cc2)C(=O)O)c(OC)c1 [Compound 1194],0.01 to 10
15,COC(=O)[C@H](CCNC(=O)C(=O)NCC(C)(C)C)NC(=O)c1ccc(Nc2nc(NC3(c4ccc(Cl)cc4)CC3)nc(OCC(F)(F)F)n2)cc1 [Compound 1195],0.01 to 10
16,COC(=O)[C@H](CCNC(=O)C(=O)NCC1CC1)NC(=O)c1ccc(Nc2nc(NC3(c4ccc(Cl)cc4)CC3)nc(OCC(F)(F)F)n2)cc1 [Compound 1196],0.01 to 10
17,COC(=O)[C@H](CCNC(=O)C(=O)NCC1CCCCCC1)NC(=O)c1ccc(Nc2nc(NC3(c4ccc(Cl)cc4)CC3)nc(OCC(F)(F)F)n2)cc1 [Compound 1197],0.01 to 10
18,COC(=O)[C@H](CCNC(=O)C(=O)NCC1CCCOC1)NC(=O)c1ccc(Nc2nc(NC3(c4ccc(Cl)cc4)CC3)nc(OCC(F)(F)F)n2)cc1 (stereo partly drawn) [Compound 1198],0.01 to 10
19,CCC1(CC)CC1CNC(=O)C(=O)NCC[C@H](NC(=O)c1ccc(Nc2nc(NC3(c4ccc(Cl)cc4)CC3)nc(OCC(F)(F)F)n2)cc1)C(=O)OC (stereo partly drawn) [Compound 1199],0.01 to 10
20,COC(=O)[C@H](CCNC(=O)C(=O)NCC1CCCN(C(=O)OC(C)(C)C)C1)NC(=O)c1ccc(Nc2nc(NC3(c4ccc(Cl)cc4)CC3)nc(OCC(F)(F)F)n2)cc1 (stereo partly drawn) [Compound 1200],0.01 to 10
21,COC(=O)[C@H](CCNC(=O)C(=O)NCC1CC[C@H]2C[C@@H]1C2(C)C)NC(=O)c1ccc(Nc2nc(NC3(c4ccc(Cl)cc4)CC3)nc(OCC(F)(F)F)n2)cc1 (stereo partly drawn) [Compound 1201],0.01 to 10
22,CCC(CC)CNC(=O)C(=O)NCC[C@H](NC(=O)c1ccc(Nc2nc(NC3(c4ccc(Cl)cc4)CC3)nc(OCC(F)(F)F)n2)cc1)C(=O)OC [Compound 1202],0.01 to 10
23,COC(=O)[C@H](CCNC(=O)C(=O)NCC1(C2CCCCC2)CC1)NC(=O)c1ccc(Nc2nc(NC3(c4ccc(Cl)cc4)CC3)nc(OCC(F)(F)F)n2)cc1 [Compound 1203],0.01 to 10
24,CC(C)(C)OC(=O)N1CCCC(CNC(=O)C(=O)NCC[C@H](NC(=O)c2ccc(Nc3nc(NC4(c5ccc(Cl)cc5)CC4)nc(OCC(F)(F)F)n3)cc2)C(=O)O)C1 (stereo partly drawn) [Compound 1204],0.01 to 10
